Measured values: patent US8916183B2, “Pesticidal compositions and processes related thereto” (priority 2012, dated 2014)

Experiments:
Assay type in all cases: in vivo
[1] = test system: Beet Armyworm (BAW) (Spodoptera exigua); assay: Bioassay on beet armyworm (BAW), 128-well diet tray assay; settings: Spodoptera exigua; beet armyworm, 50 μg/cm^2; read-out: % Mortality BAW 50 μg/cm^2
[2] = test system: Corn Earworm (CEW) (Helicoverpa zea); assay: Bioassay on corn earworm (CEW), 128-well diet tray assay; settings: Helicoverpa zea; corn earworm, 50 μg/cm^2; read-out: % Mortality CEW 50 μg/cm^2
Method in brief: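 Activity was scored as percent larval mortality per well, averaged across eight wells and reported on a rating scale. Diet trays (128-well) were kept at 25° C with 14:10 light-dark for five to seven days.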

[3] = test system: Green Peach Aphid (GPA) (Myzus persicae); assay: Bioassay on green peach aphid (GPA), foliar spray on cabbage seedlings; settings: green peach aphid, 200 ppm, read-out: % Mortality GPA 200 ppm
Method in brief: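 Cabbage seedlings (2-3 true leaves), each infested a day earlier with 20-50 wingless adult and nymph GPA, were sprayed on both leaf sides to runoff, four pots per treatment. Corrected % control was calculated against solvent-check plants.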

**Q.** `CC1S/C(=N\N=C\c2ccc(-c3ncn(-c4ccc(OC(F)(F)F)cc4)n3)cc2)N(c2c(F)cccc2F)C1=O` (stereo not drawn) [Compound 131C] was tested. Which mortality at 50 µg/cm2 [1] did it give?
**A.** 50 to 100%

**Q.** And the mortality at 50 µg/cm2 [2]?
**A.** 50 to 100%

**Q.** What about the mortality at 200 ppm [3] of the same compound?
**A.** 0%

**Q.** What does the source list for `CC(C)c1ccccc1N1CCS/C1=N\N=C\c1ccc(-c2ncn(-c3ccc(OC(F)(F)F)cc3)n2)cc1` [Compound 132C]?
**A.** mortality at 50 µg/cm2 [1]: 50 to 100%; mortality at 50 µg/cm2 [2]: 50 to 100%; mortality at 200 ppm [3]: 0 to 80%

**Q.** `CCc1ccccc1N1CCS/C1=N\N=C\c1ccc(-c2ncn(-c3ccc(OC(F)(F)F)cc3)n2)cc1` [Compound 133C] was tested. Which mortality at 50 µg/cm2 [1] did it give?
**A.** 50 to 100%

**Q.** And the mortality at 50 µg/cm2 [2]?
**A.** 50 to 100%

**Q.** And the mortality at 200 ppm [3]?
**A.** 0 to 80%

**Q.** What does the source list for `CCC(C)c1ccccc1N1CCS/C1=N\N=C\c1ccc(-c2ncn(-c3ccc(OC(F)(F)F)cc3)n2)cc1` (stereo not drawn) [Compound 135C]?
**A.** mortality at 50 µg/cm2 [1]: 50 to 100%; mortality at 50 µg/cm2 [2]: 50 to 100%; mortality at 200 ppm [3]: 0%

**Q.** With `CCc1cccc(C)c1N1CCS/C1=N\N=C\c1ccc(-c2ncn(-c3ccc(OC(F)(F)F)cc3)n2)cc1` [Compound 136C] as the compound, how does the mortality at 50 µg/cm2 [1] read?
**A.** 50 to 100%

**Q.** And the mortality at 50 µg/cm2 [2]?
**A.** 50 to 100%

**Q.** What about the mortality at 200 ppm [3] of the same compound?
**A.** 0%

**Q.** Which results are given for `COc1ccc(N2CCS/C2=N\N=C\c2ccc(-c3ncn(-c4ccc(OC(F)(F)F)cc4)n3)cc2)c(C)c1` [Compound 137C]?
**A.** mortality at 50 µg/cm2 [1]: 50 to 100%; mortality at 50 µg/cm2 [2]: 50 to 100%; mortality at 200 ppm [3]: 0%

**Q.** Which results are given for `COc1cc(C)c(N2CCS/C2=N\N=C\c2ccc(-c3ncn(-c4ccc(OC(F)(F)F)cc4)n3)cc2)c(C)c1` [Compound 138C]?
**A.** mortality at 50 µg/cm2 [1]: 50 to 100%; mortality at 50 µg/cm2 [2]: 50 to 100%; mortality at 200 ppm [3]: 0 to 80%

**Q.** What does the source list for `Cc1cc(C)c(N2CCS/C2=N\N=C\c2ccc(-c3ncn(-c4ccc(OC(F)(F)F)cc4)n3)cc2)c(C)c1` [Compound 139C]?
**A.** mortality at 50 µg/cm2 [1]: 50 to 100%; mortality at 50 µg/cm2 [2]: 50 to 100%; mortality at 200 ppm [3]: 0 to 80%

**Q.** What does the source list for `COc1ccccc1N1CCS/C1=N\N=C\c1ccc(-c2ncn(-c3ccc(OC(F)(F)F)cc3)n2)cc1` [Compound 140C]?
**A.** mortality at 50 µg/cm2 [1]: 50 to 100%; mortality at 50 µg/cm2 [2]: 50 to 100%; mortality at 200 ppm [3]: 0 to 80%

**Q.** Which mortality at 50 µg/cm2 [1] does the source give for `Cc1ccccc1N1CCS/C1=N\N=C\c1ccc(-c2ncn(-c3ccc(OC(F)(F)F)cc3)n2)cc1` [Compound 141C] here?
**A.** 50 to 100%

**Q.** And the mortality at 50 µg/cm2 [2]?
**A.** 50 to 100%

**Q.** What about the mortality at 200 ppm [3] of the same compound?
**A.** 0%

**Q.** With `Cc1cccc(C)c1N1CCS/C1=N\N=C\c1ccc(-c2ncn(-c3ccc(OC(F)(F)F)cc3)n2)cc1` [Compound 142C] as the compound, how does the mortality at 50 µg/cm2 [1] read?
**A.** 50 to 100%

**Q.** What about the mortality at 50 µg/cm2 [2] of the same compound?
**A.** 50 to 100%

**Q.** What about the mortality at 200 ppm [3] of the same compound?
**A.** 0%

**Q.** With `FC(F)(F)Oc1ccc(-n2cnc(-c3ccc(/C=N/N=C4\SCCN4c4ccccc4C4CC4)cc3)n2)cc1` [Compound 145C] as the compound, how does the mortality at 50 µg/cm2 [1] read?
**A.** 50 to 100%

**Q.** What about the mortality at 50 µg/cm2 [2] of the same compound?
**A.** 50 to 100%

**Q.** What about the mortality at 200 ppm [3] of the same compound?
**A.** 0 to 80%

**Q.** How did the mortality at 50 µg/cm2 [1] turn out when `CCOc1ccccc1N1CCS/C1=N\N=C\c1ccc(-c2ncn(-c3ccc(OC(F)(F)F)cc3)n2)cc1` [Compound 146C] was run?
**A.** 50 to 100%

**Q.** And the mortality at 50 µg/cm2 [2]?
**A.** 50 to 100%

**Q.** And the mortality at 200 ppm [3]?
**A.** 0 to 80%

**Q.** What does the source list for `COc1cccc(N2CCS/C2=N\N=C\c2ccc(-c3ncn(-c4ccc(OC(F)(F)F)cc4)n3)cc2)c1` [Compound 147C]?
**A.** mortality at 50 µg/cm2 [1]: 50 to 100%; mortality at 50 µg/cm2 [2]: 50 to 100%; mortality at 200 ppm [3]: 0 to 80%

**Q.** With `FC(F)(F)Oc1ccc(-n2cnc(-c3ccc(/C=N/N=C4\SCCN4c4c(Cl)cccc4C(F)(F)F)cc3)n2)cc1` [Compound 149C] as the compound, how does the mortality at 50 µg/cm2 [1] read?
**A.** 50 to 100%

**Q.** And the mortality at 50 µg/cm2 [2]?
**A.** 50 to 100%

**Q.** And the mortality at 200 ppm [3]?
**A.** 0%

**Q.** What does the source list for `CC(C)Cc1ccccc1N1CCS/C1=N\N=C\c1ccc(-c2ncn(-c3ccc(OC(F)(F)F)cc3)n2)cc1` [Compound 150C]?
**A.** mortality at 50 µg/cm2 [1]: 50 to 100%; mortality at 50 µg/cm2 [2]: 50 to 100%; mortality at 200 ppm [3]: 0%
